Test results published in patent publication US8686044B2, “Amide derivative, pest control agent containing the amide derivative, and use of the amide derivative” (Mitsui Chemicals Agro, Inc., priority 2008, dated 2014).

Experiments:
Assay type in all cases: in vivo
[1] = system: Spodoptera litura; experiment: Pesticidal test against Spodoptera litura (cabbage leaf dip); conditions: foliar, 144 h, 2-stage larvae, examined after 6 days, 25° C., read-out: pesticidal rate; for pest or weed control at 10 ppm: concentration 10 ppm; for pest or weed control at 1 ppm: concentration 1 ppm
Outline: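 Cabbage leaf pieces dipped 30 seconds in compound solution at a predetermined concentration and air-dried, then offered to second-stage larvae, five per group in two replicates. Held at 25° C. Living and dead larvae counted after 6 days.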

[2] = system: Plutella xylostella; experiment: Pesticidal test against Plutella xylostella (cabbage leaf dip); conditions: foliar, 144 h, 2-stage larvae, examined after 6 days, 25° C., read-out: pesticidal rate; for pest or weed control at 1 ppm: concentration 1 ppm; for pest or weed control at 10 ppm: concentration 10 ppm
Outline: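 Cabbage leaf pieces dipped 30 s in test solution at a predetermined concentration, air-dried, then offered to 2nd-instar larvae, five per group in duplicate. Held at 25° C; living and dead larvae counted after 6 days.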

[3] = system: Musca domestica; experiment: Pesticidal test against Musca domestica (petri dish dry film); conditions: 24 h, concentration 100 ppm, female adults, examined after 1 day, 25° C., read-out: pesticidal rate
Description: Pesticidal Test against Musca domestica
1 ml of an acetone solution in which a test compound had been prepared at a predetermined concentration was added dropwise to a petri dish having a diameter of 9 cm, and air-dried, and then the female adults of Musca domestica were released and the petri dish was capped. They were left to stand in a thermostatic chamber at 25° C., and the numbers of the living pests and the dead pests were examined after 1 day. The test was carried out with five larvae per group in two replicates.

[4] = system: Laodelphax striatellus; experiment: Pesticidal test against Laodelphax striatellus (rice seedling spray); conditions: 144 h, concentration 100 ppm, 3-stage larvae, examined after 6 days, 25° C., read-out: pesticidal rate
Outline: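 Rice seedlings sprayed with 2.5 ml acetone solution of compound at a predetermined concentration, air-dried, then infested with third-stage Laodelphax striatellus larvae in capped water-containing tubes at 25 °C. Living and dead insects counted after 6 days; ten larvae per group, two replicates.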

N#Cc1ccc(C(=O)Nc2c(Br)cc(C(F)(C(F)(F)F)C(F)(F)F)cc2C(F)(F)F)c(F)c1NC(=O)c1ccc(Cl)nc1 [1-1968, N-(3-(2-bromo-4-(perfluoropropan-2-yl)-6-(trifluoromethyl)phenylcarbamoyl)-6-cyano-2-fluorophenyl)-6-chloronicotinamide]
≥ 70%: pest or weed control at 10 ppm [1] | pest or weed control at 1 ppm [2] | pest or weed control at 100 ppm [3]

O=C(Nc1c(Br)cc(C(F)(C(F)(F)F)C(F)(F)F)cc1C(F)(F)F)c1cccc(NC(=O)c2ccccc2Cl)c1 [6-272]
≥ 70%: pest or weed control at 1 ppm [1] | pest or weed control at 1 ppm [2] | pest or weed control at 100 ppm [3]

O=C(Nc1c(Br)cc(C(F)(C(F)(F)F)C(F)(F)F)cc1C(F)(F)F)c1cccc(NC(=O)c2ccc(F)cc2Cl)c1 [6-293]
≥ 70%: pest or weed control at 1 ppm [1] | pest or weed control at 1 ppm [2] | pest or weed control at 100 ppm [3]

O=C(Nc1c(I)cc(C(F)(C(F)(F)F)C(F)(F)F)cc1C(F)(F)F)c1cccc(NC(=O)c2ccccc2Cl)c1 [6-428]
≥ 70%: pest or weed control at 1 ppm [1] | pest or weed control at 1 ppm [2] | pest or weed control at 100 ppm [3]

O=C(Nc1c(I)cc(C(F)(C(F)(F)F)C(F)(F)F)cc1C(F)(F)F)c1cccc(NC(=O)c2cc(F)c(F)cc2Cl)c1 [6-450]
≥ 70%: pest or weed control at 1 ppm [1] | pest or weed control at 1 ppm [2] | pest or weed control at 100 ppm [3]

O=C(Nc1c(I)cc(C(F)(C(F)(F)F)C(F)(F)F)cc1C(F)(F)F)c1cccc(NC(=O)c2ccc(Cl)cc2Br)c1 [6-452]
≥ 70%: pest or weed control at 1 ppm [1] | pest or weed control at 10 ppm [2] | pest or weed control at 100 ppm [3]

O=C(Nc1c(I)cc(C(F)(C(F)(F)F)C(F)(F)F)cc1C(F)(F)F)c1cccc(NC(=O)c2ccc(F)cc2Br)c1 [6-453]
≥ 70%: pest or weed control at 1 ppm [1] | pest or weed control at 1 ppm [2] | pest or weed control at 100 ppm [3]

CN(C(=O)c1ccccc1F)c1cccc(C(=O)Nc2c(Br)cc(C(F)(C(F)(F)F)C(F)(F)C(F)(F)F)cc2Br)c1 (stereo not drawn) [7-39]
≥ 70%: pest or weed control at 1 ppm [1] | pest or weed control at 1 ppm [2] | pest or weed control at 100 ppm [3]

CN(C(=O)c1ccccc1Cl)c1cccc(C(=O)Nc2c(I)cc(C(F)(C(F)(F)F)C(F)(F)F)cc2C(F)(F)F)c1 [7-428]
≥ 70%: pest or weed control at 1 ppm [1] | pest or weed control at 1 ppm [2] | pest or weed control at 100 ppm [3]

CN(C(=O)c1ccc(F)cc1Cl)c1cccc(C(=O)Nc2c(I)cc(C(F)(C(F)(F)F)C(F)(F)F)cc2C(F)(F)F)c1 [7-449]
≥ 70%: pest or weed control at 1 ppm [1] | pest or weed control at 1 ppm [2] | pest or weed control at 100 ppm [3]

CN(C(=O)c1ccc(Cl)nc1)c1cccc(C(=O)Nc2c(Br)cc(C(F)(C(F)(F)F)C(F)(F)C(F)(F)F)cc2Br)c1F (stereo not drawn) [7-1225]
≥ 70%: pest or weed control at 1 ppm [1] | pest or weed control at 1 ppm [2] | pest or weed control at 100 ppm [4]

CN(C(=O)c1ccccc1F)c1cccc(C(=O)Nc2c(I)cc(C(F)(C(F)(F)F)C(F)(F)C(F)(F)F)cc2I)c1F (stereo not drawn) [7-1339]
≥ 70%: pest or weed control at 1 ppm [1] | pest or weed control at 1 ppm [2] | pest or weed control at 100 ppm [4]

CN(C(=O)c1ccc(F)cc1)c1cccc(C(=O)Nc2c(I)cc(C(F)(C(F)(F)F)C(F)(F)C(F)(F)F)cc2I)c1F (stereo not drawn) [7-1341]
≥ 70%: pest or weed control at 1 ppm [1] | pest or weed control at 1 ppm [2] | pest or weed control at 100 ppm [4]

CN(C(=O)c1cccnc1Cl)c1cccc(C(=O)Nc2c(I)cc(C(F)(C(F)(F)F)C(F)(F)C(F)(F)F)cc2I)c1F (stereo not drawn) [7-1374]
≥ 70%: pest or weed control at 1 ppm [1] | pest or weed control at 1 ppm [2] | pest or weed control at 100 ppm [4]

CN(C(=O)c1cccnc1)c1cccc(C(=O)Nc2c(Br)cc(C(F)(C(F)(F)F)C(F)(F)F)cc2C(F)(F)F)c1F [7-1608]
≥ 70%: pest or weed control at 1 ppm [1] | pest or weed control at 1 ppm [2] | pest or weed control at 100 ppm [4]

CN(C(=O)c1cccnc1Cl)c1cccc(C(=O)Nc2c(Br)cc(C(F)(C(F)(F)F)C(F)(F)F)cc2C(F)(F)F)c1F [7-1610]
≥ 70%: pest or weed control at 1 ppm [1] | pest or weed control at 1 ppm [2] | pest or weed control at 100 ppm [4]

CN(C(=O)c1ccncc1)c1cccc(C(=O)Nc2c(Br)cc(C(F)(C(F)(F)F)C(F)(F)F)cc2C(F)(F)F)c1F [7-1639]
≥ 70%: pest or weed control at 1 ppm [1] | pest or weed control at 1 ppm [2] | pest or weed control at 100 ppm [4]

CN(C(=O)c1cccc(C#N)c1)c1cccc(C(=O)Nc2c(Br)cc(C(F)(C(F)(F)F)C(F)(F)C(F)(F)F)cc2C(F)(F)F)c1F (stereo not drawn) [7-1672]
≥ 70%: pest or weed control at 1 ppm [1] | pest or weed control at 1 ppm [2] | pest or weed control at 100 ppm [4]

CN(C(=O)c1ccc(C#N)cc1)c1cccc(C(=O)Nc2c(Br)cc(C(F)(C(F)(F)F)C(F)(F)C(F)(F)F)cc2C(F)(F)F)c1F (stereo not drawn) [7-1673]
≥ 70%: pest or weed control at 1 ppm [1] | pest or weed control at 1 ppm [2] | pest or weed control at 100 ppm [4]

CN(C(=O)c1cccnc1Cl)c1cccc(C(=O)Nc2c(I)cc(C(F)(C(F)(F)F)C(F)(F)C(F)(F)F)cc2C(F)(F)F)c1F (stereo not drawn) [7-1844]
≥ 70%: pest or weed control at 1 ppm [1] | pest or weed control at 1 ppm [2] | pest or weed control at 100 ppm [4]

CN(C(=O)c1ccccc1)c1cc(C(=O)Nc2c(Br)cc(C(F)(C(F)(F)F)C(F)(F)F)cc2C(F)(F)F)ccc1F [7-3348]
≥ 70%: pest or weed control at 1 ppm [1] | pest or weed control at 1 ppm [2] | pest or weed control at 100 ppm [4]

CN(C(=O)c1ccc(C#N)cc1)c1cc(C(=O)Nc2c(Br)cc(C(F)(C(F)(F)F)C(F)(F)F)cc2C(F)(F)F)ccc1F [7-3369]
≥ 70%: pest or weed control at 1 ppm [1] | pest or weed control at 1 ppm [2] | pest or weed control at 100 ppm [4]

CN(C(=O)c1ccccc1)c1cccc(C(=O)Nc2c(Br)cc(C(F)(C(F)(F)F)C(F)(F)F)cc2I)c1F [7-5902]
≥ 70%: pest or weed control at 1 ppm [1] | pest or weed control at 1 ppm [2] | pest or weed control at 100 ppm [4]

CN(C(=O)c1cccnc1Cl)c1cccc(C(=O)Nc2c(Br)cc(C(F)(C(F)(F)F)C(F)(F)F)cc2I)c1F [7-5903]
≥ 70%: pest or weed control at 1 ppm [1] | pest or weed control at 1 ppm [2] | pest or weed control at 100 ppm [4]

CN(C(=O)c1cccc(F)c1)c1cccc(C(=O)Nc2c(I)cc(C(F)(C(F)(F)F)C(F)(F)C(F)(F)F)cc2I)c1 (stereo not drawn) [7-5904]
≥ 70%: pest or weed control at 1 ppm [1] | pest or weed control at 1 ppm [2] | pest or weed control at 100 ppm [4]

CN(C(=O)c1cccc(F)c1)c1cccc(C(=O)Nc2c(Br)cc(C(F)(C(F)(F)F)C(F)(F)C(F)(F)F)cc2Br)c1 (stereo not drawn) [7-5906]
≥ 70%: pest or weed control at 1 ppm [1] | pest or weed control at 1 ppm [2] | pest or weed control at 100 ppm [4]

CN(C(=O)c1ccc(F)cc1)c1cccc(C(=O)Nc2c(Br)cc(C(F)(C(F)(F)F)C(F)(F)C(F)(F)F)cc2Br)c1 (stereo not drawn) [7-5907]
≥ 70%: pest or weed control at 1 ppm [1] | pest or weed control at 1 ppm [2] | pest or weed control at 100 ppm [4]

CN(C(=O)c1cncnc1)c1cccc(C(=O)Nc2c(I)cc(C(F)(C(F)(F)F)C(F)(F)F)cc2C(F)(F)F)c1 [7-5909]
≥ 70%: pest or weed control at 10 ppm [1] | pest or weed control at 1 ppm [2] | pest or weed control at 100 ppm [4]

CN(C(=O)c1cccnc1Cl)c1cccc(C(=O)Nc2c(Br)cc(C(F)(F)C(F)(F)F)cc2C(F)(F)F)c1 [7-5912]
≥ 70%: pest or weed control at 10 ppm [1] | pest or weed control at 10 ppm [2] | pest or weed control at 100 ppm [4]

CN(C(=O)c1cccc(NC(=O)c2ccc(C#N)cc2)c1)c1c(Br)cc(C(F)(C(F)(F)F)C(F)(F)F)cc1C(F)(F)F [8-289, N-(2-bromo-4-(perfluoropropan-2-yl)-6-(trifluoromethyl)phenyl)-3-(4-cyanobenzamide)-N-methylbenzamide]
≥ 70%: pest or weed control at 1 ppm [1] | pest or weed control at 1 ppm [2] | pest or weed control at 100 ppm [4]

CN(C(=O)c1cccc(NC(=O)c2cccnc2Cl)c1)c1c(Br)cc(C(F)(C(F)(F)F)C(F)(F)F)cc1C(F)(F)F [8-304]
≥ 70%: pest or weed control at 1 ppm [1] | pest or weed control at 1 ppm [2] | pest or weed control at 100 ppm [4]

CN(C(=O)c1cccc(NC(=O)c2cccnc2Cl)c1)c1c(C(F)(F)F)cc(C(F)(C(F)(F)F)C(F)(F)F)cc1C(F)(F)F [8-840]
≥ 70%: pest or weed control at 1 ppm [1] | pest or weed control at 10 ppm [2] | pest or weed control at 100 ppm [4]

CN(C(=O)c1ccccc1)c1cccc(C(=O)N(C)c2c(Br)cc(C(F)(C(F)(F)F)C(F)(F)F)cc2C(F)(F)F)c1 [9-270]
≥ 70%: pest or weed control at 1 ppm [1] | pest or weed control at 1 ppm [2] | pest or weed control at 100 ppm [4]

CN(C(=O)c1cccc(C#N)c1)c1cccc(C(=O)N(C)c2c(Br)cc(C(F)(C(F)(F)F)C(F)(F)F)cc2C(F)(F)F)c1 [9-290]
≥ 70%: pest or weed control at 1 ppm [1] | pest or weed control at 1 ppm [2] | pest or weed control at 100 ppm [4]

CN(C(=O)c1ccc(C#N)cc1)c1cccc(C(=O)N(C)c2c(Br)cc(C(F)(C(F)(F)F)C(F)(F)F)cc2C(F)(F)F)c1 [9-291]
≥ 70%: pest or weed control at 1 ppm [1] | pest or weed control at 1 ppm [2] | pest or weed control at 100 ppm [4]

CN(C(=O)c1cccnc1Cl)c1cccc(C(=O)N(C)c2c(Br)cc(C(F)(C(F)(F)F)C(F)(F)F)cc2C(F)(F)F)c1 [9-306]
≥ 70%: pest or weed control at 1 ppm [1] | pest or weed control at 1 ppm [2] | pest or weed control at 100 ppm [4]
